These are literature values, as cited in patent US8404715B2, “Methods and compositions using racemic, (R)-, and (S)-fexofenadine in combination with leukotriene inhibitors” (Sunovion Pharmaceuticals Inc., priority 1998, dated 2013).

The conditions of data set [1]: 373 patients.
For data set [2], the system named is leukotriene (LTH4, LTC4, LTD4, and LTE4) formation. Conditions: in vitro.
Data set [3] has as its system leukotriene-dependent smooth muscle contractions. The conditions noted are these: in vitro, guinea pig airways.
Data set [4] shares this test system. The conditions noted are these: in vitro, human airways.
The conditions of data set [5]: in some patients.
Data set [6] concerns LTB4 formation. The conditions noted are these: ex vivo, several species.
Data set [7] has as its system nasal response to allergen challenge.
The conditions of data set [8]: in vivo.
The test system of data set [9] is LTD4 (leukotriene D4). The conditions noted are these: guinea pigs.
Data set [10] concerns LTD4. The conditions noted are these: in vivo.
The conditions of data set [11]: in some patients. This is another data set of the same source.
Data set [12] concerns contractile activity of three leukotrienes. Conditions: humans.
The test system is the same in data set [13]. Conditions: laboratory animals.
The subject of data set [14] is LTD4. The conditions noted are these: in vivo. The source holds these as a separate data set.

Like-named read-outs stand apart in the source and are kept apart here.

With `CC(c1cc2ccccc2s1)N(O)C(N)=O` (racemic) [zileuton, (±)-1-(1-Benso[b]thien-2-ylethyl)-1-hydroxyurea], the figures for the efficacy entry in [1] (400 mg) and in [1] (600 mg four times daily) were “failed to do so” and “required to provide efficacy”, respectively. For the same molecule, the “leukotriene (LTH4, LTC4, LTD4, and LTE4) formation” value in data set [2] is on record as “inhibit”. The “leukotriene-dependent smooth muscle contractions” value in data set [3] and in data set [4] was “inhibits” in each case. Also, the adverse effects reported result in data set [5] was “headache, pain, asthenia, dyspepsia, nausea, and myalgia”. The LTB4 formation result in data set [6] is on record as “inhibitor”.
As for `CC(C)(C)c1ccc(C(O)CCCN2CCC(C(O)(c3ccccc3)c3ccccc3)CC2)cc1` (stereo not shown) [Terfenadine], in data set [7] (in vivo), the “early nasal response to allergen challenge” value is given as “partially inhibits”, the “influx of eosinophils into nasal secretions” value is “without affecting” and the “subsequent reactivity to a challenge with methacholine” value is given as “partially inhibits”. In addition, the “levels of tryptase, prostaglandin D2 and leukotriene C4” value in data set [7] (relative to the placebo, differences did not achieve statistical significance) was “tended to decrease”. Moreover, in [8], the absorption entry was “well absorbed” and the metabolism result was “extensively metabolized”. The “increase in airway resistance caused by LTD4” value in data set [9] is listed as “suppressed”.
In the case of `COc1cc(C(=O)NS(=O)(=O)c2ccccc2C)ccc1Cc1cn(C)c2ccc(NC(=O)OC3CCCC3)cc12` [zafirlukast, 4-(5-cyclopentyloxy-carbonylamino-1-methyl-indol-8-ylmethyl)-3-methoxy-N-o-tolylsulfonylbenzamide], the “intradermal LTD4-induced increases in cutaneous vascular permeability” value in [10] was “prevented”. Moreover, the adverse effects reported entry in [11] is “headache, infection, nausea, diarrhea, pain, asthenia, abdominal pain, dizziness, myalgia, fever, vomiting, SGPT elevation, and dyspepsia”. Moreover, the “contractile activity of three leukotrienes in conducting airway smooth muscle” value in data set [12] and in data set [13] was “antagonized” in each case. The “inhaled LTD4-induced influx of eosinophils into animal lungs” value in data set [14] is given as “inhibited”.
